In article PMC6044503 (ACS Omega, 2017):
pEC50, pIC50: −log10 of the molar value. Where a SMILES comes first, the peptide text is derived from it. [ ]: non-standard residue; d: D form. The star is where a group is joined. Phe(4-F) = N[C@@H](Cc1ccc(F)cc1)C(=O)O; 1Nal = N[C@@H](Cc1cccc2ccccc12)C(=O)O; 2Nal = N[C@@H](Cc1ccc2ccccc2c1)C(=O)O; Cyclohexanecarbonyl = O=C(C1CCCCC1)*; 1Naphthoyl = O=C(c1cccc2ccccc12)*; 2Naphthoyl = O=C(c1ccc2ccccc2c1)*; Cha = N[C@@H](CC1CCCCC1)C(=O)O; 4Amb = NCc1ccc(C(=O)O)cc1; Nle = CCCC[C@H](N)C(=O)O; Aib = CC(C)(N)C(=O)O; Bz = O=C(c1ccccc1)*

Tests used:
[1] = target: T1, human Y2R (Homo sapiens, UniProt P49146); assay: biochemical; format: binding
T1 sequence (P49146 1-381): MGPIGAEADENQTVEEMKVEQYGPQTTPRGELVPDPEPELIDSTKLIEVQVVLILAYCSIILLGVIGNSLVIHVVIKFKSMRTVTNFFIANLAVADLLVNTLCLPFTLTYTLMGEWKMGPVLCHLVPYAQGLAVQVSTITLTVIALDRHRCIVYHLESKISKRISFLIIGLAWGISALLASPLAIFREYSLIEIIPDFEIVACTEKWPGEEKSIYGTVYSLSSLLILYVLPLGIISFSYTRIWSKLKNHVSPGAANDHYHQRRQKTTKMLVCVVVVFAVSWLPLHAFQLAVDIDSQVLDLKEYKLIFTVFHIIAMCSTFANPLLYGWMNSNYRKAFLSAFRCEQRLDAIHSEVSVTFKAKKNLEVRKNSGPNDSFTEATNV

[2] = target: T1, human Y2R; assay: biochemical; format: biochemical
[3] = tested on: male C57BL/6J mice; assay: Food intake assay, bolus ip administration in lean mice; format: in vivo, mouse; details: 3 h after administration, vs saline, mean ± SD

Structure (SMILES) | pIC50 [1] | pEC50 [2] | % food intake inhibition ([3]; bolus ip 1000 nmol/kg) | % food intake inhibition ([3]; bolus ip 500 nmol/kg) [%] | agonist activity, fold increase compared to that of 4 ([2]; relative to compound 4)
CCCC[C@H](NC(=O)[C@H](CC(C)C)NC(=O)[C@H](CC(N)=O)NC(=O)[C@@H](NC(=O)[C@H](CC1CCCCC1)NC(=O)[C@H](Cc1c[nH]cn1)NC(=O)[C@H](CCCNC(=N)N)NC(=O)c1ccccc1)[C@@H](C)CC)C(=O)N[C@H](C(=O)N[C@@H](CCCNC(=N)N)C(=O)N[C@@H](CCC(N)=O)C(=O)N[C@@H](CCCNC(=N)N)C(=O)N[C@@H](CC1CCCCC1)C(N)=O)[C@@H](C)O [Compound 7] (Bz-RH[Cha]INL[Nle]TRQR[Cha]-NH2) | 7.89 | 8.62 | 12 ± 5% | – | –
CC(C)C[C@H](NC(=O)[C@H](CC(N)=O)NC(=O)[C@H](Cc1cccc2ccccc12)NC(=O)[C@H](CC1CCCCC1)NC(=O)[C@H](Cc1c[nH]cn1)NC(=O)[C@H](CCCNC(=N)N)NC(=O)c1ccccc1)C(=O)NC(C)(C)C(=O)N[C@H](C(=O)N[C@@H](CCCNC(=N)N)C(=O)N[C@@H](CCC(N)=O)C(=O)N[C@@H](CCCNC(=N)N)C(=O)N[C@@H](CC1CCCCC1)C(N)=O)[C@@H](C)O [Compound 19] (Bz-RH[Cha][1Nal]NL[Aib]TRQR[Cha]-NH2) | 8.04 | 8.57 | – | 41 ± 5 | –
C[C@@H](O)[C@H](NC(=O)C(C)(C)NC(=O)[C@H](Cc1ccc(F)cc1)NC(=O)[C@H](CC(N)=O)NC(=O)[C@H](CC1CCCCC1)NC(=O)[C@H](CC1CCCCC1)NC(=O)[C@H](Cc1c[nH]cn1)NC(=O)[C@H](CCCNC(=N)N)NC(=O)C1CCCCC1)C(=O)N[C@@H](CCCNC(=N)N)C(=O)N[C@@H](CCC(N)=O)C(=O)N[C@@H](CCCNC(=N)N)C(=O)N[C@@H](CC1CCCCC1)C(N)=O [Compound 28] (Cyclohexanecarbonyl-RH[Cha][Cha]N[Phe(4-F)][Aib]TRQR[Cha]-NH2) | 7.51 | 8.14 | – | 21 ± 7 | –
CC(C)C[C@H](NC(=O)[C@H](CC(N)=O)NC(=O)[C@H](Cc1ccc2ccccc2c1)NC(=O)[C@H](CC1CCCCC1)NC(=O)[C@H](Cc1c[nH]cn1)NC(=O)[C@H](CCCNC(=N)N)NC(=O)c1ccccc1)C(=O)NC(C)(C)C(=O)N[C@H](C(=O)N[C@@H](CCCNC(=N)N)C(=O)N[C@@H](CCC(N)=O)C(=O)N[C@@H](CCCNC(=N)N)C(=O)N[C@@H](CC1CCCCC1)C(N)=O)[C@@H](C)O [Compound 20] (Bz-RH[Cha][2Nal]NL[Aib]TRQR[Cha]-NH2) | 7.54 | 8.12 | – | 18 ± 2 | –
CC(C)C[C@H](NC(=O)[C@H](CC(N)=O)NC(=O)[C@H](CC1CCCCC1)NC(=O)[C@H](CC1CCCCC1)NC(=O)[C@H](Cc1cnc[nH]1)NC(=O)[C@H](CCCNC(=N)N)NC(=O)c1ccc(CN)cc1)C(=O)NC(C)(C)C(=O)N[C@H](C(=O)N[C@@H](CCCNC(=N)N)C(=O)N[C@@H](CCC(N)=O)C(=O)N[C@@H](CCCNC(=N)N)C(=O)N[C@@H](CC1CCCCC1)C(N)=O)[C@@H](C)O [Compound 24] (H-[4Amb]RH[Cha][Cha]NL[Aib]TRQR[Cha]-NH2) | 9.19 | 9.32 | – | 29 ± 7 | –
CC[C@H](C)[C@H](NC(=O)[C@H](CC1CCCCC1)NC(=O)[C@H](Cc1c[nH]cn1)NC(=O)[C@H](CCCNC(=N)N)NC(=O)C1CCCCC1)C(=O)N[C@@H](CC(N)=O)C(=O)N[C@@H](Cc1c[nH]c2ccccc12)C(=O)NC(C)(C)C(=O)N[C@H](C(=O)N[C@@H](CCCNC(=N)N)C(=O)N[C@@H](CCC(N)=O)C(=O)N[C@@H](CCCNC(=N)N)C(=O)N[C@@H](CC1CCCCC1)C(N)=O)[C@@H](C)O [Compound 17] (Cyclohexanecarbonyl-RH[Cha]INW[Aib]TRQR[Cha]-NH2) | 8.24 | 8.72 | – | 24 ± 5 | –
CC[C@H](C)[C@H](NC(=O)[C@H](CC1CCCCC1)NC(=O)[C@H](Cc1c[nH]cn1)NC(=O)[C@H](CCCNC(=N)N)NC(=O)C1CCCCC1)C(=O)N[C@@H](CC(N)=O)C(=O)N[C@@H](Cc1c[nH]c2ccccc12)C(=O)N[C@H](C(=O)N[C@H](C(=O)N[C@@H](CCCNC(=N)N)C(=O)N[C@@H](CCC(N)=O)C(=O)N[C@@H](CCCNC(=N)N)C(=O)N[C@@H](CC1CCCCC1)C(N)=O)[C@@H](C)O)[C@@H](C)CC [Compound 13] (Cyclohexanecarbonyl-RH[Cha]INWITRQR[Cha]-NH2) | 8.17 | 8.77 | – | 8 ± 6 | –
CC[C@H](C)[C@H](NC(=O)[C@H](CC1CCCCC1)NC(=O)[C@H](Cc1c[nH]cn1)NC(=O)[C@H](CCCNC(=N)N)NC(=O)c1ccccc1)C(=O)N[C@@H](CC(N)=O)C(=O)N[C@@H](CC(C)C)C(=O)N[C@@H](CCCCN)C(=O)N[C@H](C(=O)N[C@@H](CCCNC(=N)N)C(=O)N[C@@H](CCC(N)=O)C(=O)N[C@@H](CCCNC(=N)N)C(=O)N[C@@H](CC1CCCCC1)C(N)=O)[C@@H](C)O [Compound 9] (Bz-RH[Cha]INLKTRQR[Cha]-NH2) | 8.80 | 9.21 | –15 ± 7% | – | more than 4 fold
CC(C)C[C@H](NC(=O)[C@H](CC(N)=O)NC(=O)[C@H](CC1CCCCC1)NC(=O)[C@H](CC1CCCCC1)NC(=O)[C@H](Cc1c[nH]cn1)NC(=O)[C@H](CCCNC(=N)N)NC(=O)c1cccc2ccccc12)C(=O)NC(C)(C)C(=O)N[C@H](C(=O)N[C@@H](CCCNC(=N)N)C(=O)N[C@@H](CCC(N)=O)C(=O)N[C@@H](CCCNC(=N)N)C(=O)N[C@@H](CC1CCCCC1)C(N)=O)[C@@H](C)O [Compound 25] (1Naphthoyl-RH[Cha][Cha]NL[Aib]TRQR[Cha]-NH2) | 7.74 | 8.24 | – | – | –
CC(C)C[C@H](NC(=O)[C@H](CC(N)=O)NC(=O)[C@H](CC1CCCCC1)NC(=O)[C@H](CC1CCCCC1)NC(=O)[C@H](Cc1c[nH]cn1)NC(=O)[C@H](CCCNC(=N)N)NC(=O)c1ccc2ccccc2c1)C(=O)NC(C)(C)C(=O)N[C@H](C(=O)N[C@@H](CCCNC(=N)N)C(=O)N[C@@H](CCC(N)=O)C(=O)N[C@@H](CCCNC(=N)N)C(=O)N[C@@H](CC1CCCCC1)C(N)=O)[C@@H](C)O [Compound 26] (2Naphthoyl-RH[Cha][Cha]NL[Aib]TRQR[Cha]-NH2) | 7.59 | 8.22 | – | – | –
